Experimental data from US8765770B2, “Substituted [1,2,4]triazolo[1,5-a]pyrimidines and their use as potassium channel modulators” (Ataxion, Inc., priority 2009, dated 2014).

Molecular target: T1, hSK1 channels (Homo sapiens, UniProt Q92952)
T1 construct: expressed in transfected cells; host or cells: HEK293
Assay: whole-cell patch-clamp recording of ionic current through SK channels (subtype 1) in HEK293 cells expressing hSK1
Assay type: cell-based
Details: Stimulating Concentration required for increasing the baseline current by 100%
Procedure: The ionic current through small-conductance Ca^2+-activated K^+ channels (SK channels, subtype 1) is recorded using the whole-cell configuration of the patch-clamp technique in a classic patch-clamp set-up using HEK293 tissue culture cells expressing hSK1 channels as described in e.g. WO 2006/100212.
The SC100 value determined is defined as the Stimulating Concentration required for increasing the baseline current by 100%. The below SC100 values are an indication of the SK1 activating properties of the compounds of the invention.

| SC100 | SMILES |
| --- | --- |
| 0.02 µM | CON=CNc1nc2nccc(C(C)Oc3ccccc3C)n2n1 (centres unmarked) [Example 1, N-{7-[1-(2-Methylphenoxy)ethyl]-[1,2,4]triazolo[1,5-a]pyrimidin-2-yl}-N′-methoxy-formamidine] |
| 0.20 µM | CON=CNc1nc2nccc(C(C)Oc3ccccc3)n2n1 (centres unmarked) [Example A, N-{7-[1-(Phenoxy)ethyl]-[1,2,4]triazolo[1,5-a]pyrimidin-2-yl}-N′-methoxy-formamidine] |
